Experimental data as given in patent publication US9186361B2, “Compounds and compositions for the treatment of parasitic diseases” (Novartis AG, priority 2013, dated 2015).

Legend:
[1] = cited from earlier work
[2] = system: Leishmania donovani axenic amastigote parasites; assay: Assay for Leishmania proliferation in vitro (axenic amastigotes, Cell TiterGlo); assay type: cell-based; conditions: 48 h, 2 day incubation, read-out: L. donovani amastigotes EC50
Outline: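 L. donovani axenic amastigotes (9600 per well) are cultured with compound for 2 days at 37° C, 5% CO2 in RPMI-based medium at pH 5.5. Viability is read by CellTiterGlo luminescence, and EC50 is calculated.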

[3] = system: L. donovani HU3 strain in mouse peritoneal macrophages; assay: Proliferation of L. donovani in mouse peritoneal macrophages (SybrGreen, high-content imaging); assay type: cell-based; conditions: Leishmania donovani, Peritoneal macrophage, 120 h; infected mouse peritoneal macrophages, 5 days; read-out: L. donavani Macrophage EC50
Outline: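 Peritoneal macrophages from uninfected BALB/c mice were infected for 24 h with spleen-derived amastigotes (9-11 week infected mice), then exposed to compound for 5 days at 37° C. Fixed cells stained with SybrGreen and parasite nuclei counted by high-content imaging; EC50 calculated from inhibition.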

[4] = system: Trypanosoma cruzi amastigotes cultured in 3T3 fibroblast cells; assay: Assay for proliferation of kinetoplastid parasite Trypanosoma cruzi (beta-galactosidase/CPRG readout); assay type: cell-based; conditions: NIH3T3, 144 h, Tulahuen strain in 3T3 cells, 6 day incubation, read-out: T cruzi EC50
[5] = system: Trypanosoma brucei Lister 427 strain; assay: Assay for proliferation of kinetoplastid parasite Trypanosoma brucei (Cell Titer Glo); assay type: cell-based; conditions: bloodstream form, 48 hours, read-out: T. brucei EC50
Text: The proliferation is quantified by the addition of Cell Titer Glo (Promega®) a luminescent cell viability assay that measures the number of viable cells in culture based on the quantification of cellular ATP amount, which is an indicator of metabolically active cells. The following assay illustrates the invention without in any way limiting the scope of the invention. This parasite proliferation assay measures the increase in parasite growth using an assay that measures ATP activity, Cell Titer Glo®.
Trypanosoma brucei Lister 427 strain is grown in HMI-9 Trypanosome media for T. brucei bloodstream form. 30 μl of HMI-9 media is dispensed into 384 well assay plates. 200 nL of compounds of the invention (in DMSO), including anti-trypanosome controls (Pentamidine and suramin), are then transferred into the assay plates, as well as DMSO alone to serve as a negative control for inhibition. Then 25 μl of a suspension of T. brucei culture in HMI-9 media is dispensed into the assay plates. The final concentration of parasites in culture corresponds to 1.7% of 0.5 uM ATP activity with Cell Titer Glo® in HMI-9 media. The plates are placed in a 37° C. incubator for 48 hours in an atmospheric environment containing 5% CO2. 40 μl of Cell Titer Glo® is dispensed into the plates. The plates are then read for luminescence. The percentage inhibition of 50%, EC50, is calculated for each compound.

Nc1nc(N)nc(Nc2ccc([As]3SCC(CO)S3)cc2)n1 (stereo not drawn) [Melarsoprol]
reactive encephalopathy cases that result in death ([1]; of the encephalopathy cases): 10-70% | patients who developed reactive encephalopathy ([1]; patients injected with the drug): 3-10%

O=C(Nc1ccc(Cl)c(-c2nc3ncc(NC(=O)C4CC4(F)F)cc3[nH]2)c1)c1ccco1 (stereo not drawn) [Example 44, N-(4-chloro-3-{6-[(2,2-difluorocyclopropane)amido]-1H-imidazo[4,5-b]pyridin-2-yl}phenyl)furan-2-carboxamide]
EC50 [2]: 2380 nM | EC50 [3]: 5300 nM | EC50 [4]: 3900 nM | EC50 [5]: 282 nM

CC1(C)CC(C(=O)Nc2cnc3nc(-c4cc(NC(=O)c5ccco5)ccc4Cl)[nH]c3c2)C1 [Example 56, N-(4-chloro-3-{6-[(3,3-dimethylcyclobutane)amido]-1H-imidazo[4,5-b]pyridin-2-yl}phenyl)furan-2-carboxamide]
EC50 [2]: 2960 nM | EC50 [3]: 2230 nM | EC50 [4]: 1230 nM | EC50 [5]: 346 nM

CC(C)OC(=O)Nc1cnc2nc(-c3cc(NC(=O)c4ccco4)ccc3Cl)[nH]c2c1 [Example 2, propan-2-yl N-{2-[2-chloro-5-(furan-2-amido)phenyl]-1H-imidazo[4,5-b]pyridin-6-yl}carbamate]
EC50 [2]: 190 nM | EC50 [3]: 315 nM | EC50 [4]: 142 nM | EC50 [5]: 39 nM

CC(C)(N)C(=O)Nc1cnc2nc(-c3cc(NC(=O)c4ccco4)ccc3Cl)[nH]c2c1 [Example 26, N-{3-[6-(2-amino-2-methylpropanamido)-1H-imidazo[4,5-b]pyridin-2-yl]-4-chlorophenyl}furan-2-carboxamide]
EC50 [2]: > 25000 nM | EC50 [3]: 23300 nM | EC50 [4]: 14800 nM | EC50 [5]: 530 nM

CC(C)OC(=O)Nc1cnc2nc(-c3cc(NC(=O)c4ccc(F)o4)ccc3Cl)[nH]c2c1 [Example 47, propan-2-yl N-{2-[2-chloro-5-(5-fluorofuran-2-amido)phenyl]-1H-imidazo[4,5-b]pyridin-6-yl}carbamate]
EC50 [2]: 900 nM | EC50 [3]: 1520 nM | EC50 [4]: 400 nM | EC50 [5]: 200 nM

O=C(Nc1ccc(Cl)c(-c2nc3ncc(NC(=O)C4CCC4)cc3[nH]2)c1)c1ccco1 [Example 55, N-(4-chloro-3-{6-cyclobutaneamido-1H-imidazo[4,5-b]pyridin-2-yl}phenyl)furan-2-carboxamide]
EC50 [2]: 950 nM | EC50 [3]: 830 nM | EC50 [4]: 1250 nM | EC50 [5]: 75 nM

O=C(C[C@H]1CCNC1)Nc1cnc2nc(-c3cc(NC(=O)c4ccco4)ccc3Cl)[nH]c2c1 [Example 34, N-[4-chloro-3-(6-{2-[(3R)-pyrrolidin-3-yl]acetamido}-1H-imidazo[4,5-b]pyridin-2-yl)phenyl]furan-2-carboxamide]
EC50 [2]: > 25000 nM | EC50 [3]: > 50000 nM | EC50 [4]: > 20000 nM | EC50 [5]: 15200 nM

CC1(OC(=O)Nc2cnc3nc(-c4cc(NC(=O)c5ccco5)ccc4Cl)[nH]c3c2)CC1 [Example 49, 1-methylcyclopropyl N-{2-[2-chloro-5-(furan-2-amido)phenyl]-1H-imidazo[4,5-b]pyridin-6-yl}carbamate]
EC50 [2]: 480 nM | EC50 [3]: 490 nM | EC50 [4]: 440 nM | EC50 [5]: 81 nM

O=C(Nc1ccc(Cl)c(-c2nc3ncc(NC(=O)C4CC4)cc3[nH]2)c1)c1ccc(F)o1 [Example 65, N-(4-chloro-3-{6-cyclopropaneamido-1H-imidazo[4,5-b]pyridin-2-yl}phenyl)-5-fluorofuran-2-carboxamide]
EC50 [2]: 1470 nM | EC50 [3]: 570 nM | EC50 [4]: 1020 nM | EC50 [5]: 23 nM

CCOC(=O)Nc1cnc2nc(-c3cccc(NC(=O)c4ccc(F)o4)c3)[nH]c2c1 [Example 3, ethyl N-{2-[3-(5-fluorofuran-2-amido)phenyl]-1H-imidazo[4,5-b]pyridin-6-yl}carbamate]
EC50 [2]: 7700 nM | EC50 [3]: 2470 nM | EC50 [4]: 2230 nM | EC50 [5]: 230 nM

CC(C)OC(=O)Nc1cnc2nc(-c3cc(NC(=O)c4ccc(C#N)o4)ccc3Cl)[nH]c2c1 [Example 48, propan-2-yl N-{2-[2-chloro-5-(5-cyanofuran-2-amido)phenyl]-1H-imidazo[4,5-b]pyridin-6-yl}carbamate]
EC50 [2]: 620 nM | EC50 [3]: 560 nM | EC50 [4]: 141 nM | EC50 [5]: 223 nM

O=C(Nc1cccnc1)Nc1cnc2nc(-c3cc(NC(=O)c4ccco4)ccc3Cl)[nH]c2c1 [Example 21, N-[4-chloro-3-(6-{[(pyridin-3-yl)carbamoyl]amino}-1H-imidazo[4,5-b]pyridin-2-yl)phenyl]furan-2-carboxamide]
EC50 [2]: 17700 nM | EC50 [3]: > 50000 nM | EC50 [4]: > 20000 nM | EC50 [5]: 1590 nM

Nc1cnc2nc(-c3cc(NC(=O)c4ccco4)ccc3Cl)[nH]c2c1 [Example 20, N-(3-{6-amino-1H-imidazo[4,5-b]pyridin-2-yl}-4-chlorophenyl)furan-2-carboxamide]
EC50 [2]: 13600 nM | EC50 [3]: 18900 nM | EC50 [4]: 4700 nM | EC50 [5]: 1380 nM

CC(C)OC(=O)Nc1cnc2nc(-c3cc(NC(=O)N4CCCC4)ccc3Cl)[nH]c2c1 [Example 54, propan-2-yl N-(2-{2-chloro-5-[(pyrrolidin-1-yl)carbonylamino]phenyl}-1H-imidazo[4,5-b]pyridin-6-yl)carbamate]
EC50 [2]: 590 nM | EC50 [3]: 1860 nM | EC50 [4]: 1390 nM | EC50 [5]: 68 nM

N#CC1(C(=O)Nc2cnc3nc(-c4cc(NC(=O)c5ccc(F)o5)ccc4Cl)[nH]c3c2)CC1 [Example 70, N-(4-chloro-3-{6-[(1-cyanocyclopropane)amido]-1H-imidazo[4,5-b]pyridin-2-yl}phenyl)-5-fluorofuran-2-carboxamide]
EC50 [2]: 1200 nM | EC50 [3]: 530 nM | EC50 [4]: 720 nM | EC50 [5]: 32 nM

O=C(Nc1ccc(Cl)c(-c2nc3ncc(NC(=O)C4CC(F)(F)C4)cc3[nH]2)c1)c1ccco1 [Example 57, N-(4-chloro-3-{6-[(3,3-difluorocyclobutane)amido]-1H-imidazo[4,5-b]pyridin-2-yl}phenyl)furan-2-carboxamide]
EC50 [2]: 8200 nM | EC50 [3]: 12800 nM | EC50 [4]: 7400 nM | EC50 [5]: 500 nM

O=C(CCCN1CCOCC1)Nc1cnc2nc(-c3cc(NC(=O)c4ccc(F)o4)ccc3Cl)[nH]c2c1 [Example 66, N-(4-chloro-3-{6-[4-(morpholin-4-yl)butanamido]-1H-imidazo[4,5-b]pyridin-2-yl}phenyl)-5-fluorofuran-2-carboxamide]
EC50 [2]: > 25000 nM | EC50 [3]: 39200 nM | EC50 [4]: > 20000 nM | EC50 [5]: 2300 nM

O=C(Nc1ccc(Cl)c(-c2nc3ncc(NC(=O)C4(O)CC4)cc3[nH]2)c1)c1ccco1 [Example 35, N-(4-chloro-3-{6-[(1-hydroxycyclopropane)amido]-1H-imidazo[4,5-b]pyridin-2-yl}phenyl)furan-2-carboxamide]
EC50 [2]: 11400 nM | EC50 [3]: > 50000 nM | EC50 [4]: > 20000 nM | EC50 [5]: 907 nM

CC(C)(C)OC(=O)NCCC(=O)Nc1cnc2nc(-c3cc(NC(=O)c4ccc(F)o4)ccc3Cl)[nH]c2c1 [Example 68, tert-butyl N-[2-({2-[2-chloro-5-(5-fluorofuran-2-amido)phenyl]-1H-imidazo[4,5-b]pyridin-6-yl}carbamoyl)ethyl]carbamate]
EC50 [2]: 6200 nM | EC50 [3]: 7000 nM | EC50 [4]: 7600 nM | EC50 [5]: 411 nM

O=C(Nc1ccc(Cl)c(-c2nc3ncc(NC(=O)C4(C(F)(F)F)CCC4)cc3[nH]2)c1)c1ccc(F)o1 [Example 71, N-[4-chloro-3-(6-{[1-(trifluoromethyl)cyclobutane]amido}-1H-imidazo[4,5-b]pyridin-2-yl)phenyl]-5-fluorofuran-2-carboxamide]
EC50 [2]: 1400 nM | EC50 [3]: 263 nM | EC50 [4]: 153 nM | EC50 [5]: 30 nM

N#CC1(C(=O)Nc2cnc3nc(-c4cc(NC(=O)c5ccco5)ccc4Cl)[nH]c3c2)CC1 [Example 41, N-(4-chloro-3-{6-[(1-cyanocyclopropane)amido]-1H-imidazo[4,5-b]pyridin-2-yl}phenyl)-furan-2-carboxamide]
EC50 [2]: 680 nM | EC50 [3]: 1450 nM | EC50 [4]: 820 nM | EC50 [5]: 80 nM

CC(C)OC(=O)Nc1cnc2nc(-c3cccc(NC(=O)c4ccc(F)o4)c3)[nH]c2c1 [Example 78, propan-2-yl N-{2-[3-(5-fluorofuran-2-amido)phenyl]-1H-imidazo[4,5-b]pyridin-6-yl}carbamate]
EC50 [2]: 4700 nM | EC50 [3]: 1390 nM | EC50 [4]: 1440 nM | EC50 [5]: 200 nM
